Experimental data published in patent US20250248970A1, “NOVEL SUBSTITUTED FLUORINATED N-PROPYL-PYRROLIDINE COMPOUNDS, PROCESSES FOR THEIR PREPARATION AND THERAPEUTIC USES THEREOF” (SANOFI, priority 2022, published 2025).

What follows are compounds tested against T1, ERα (Homo sapiens, UniProt P03372) (assay: Estrogen receptor degradation activity (breast cancer cell ERα in cell western assay)). Conditions: MCF7 cells, 0.3 μM, 4 hours, % of ERα levels decrease relative to fulvestrant.
T1 construct: host or cells: MCF7
T1 sequence (P03372 1-595): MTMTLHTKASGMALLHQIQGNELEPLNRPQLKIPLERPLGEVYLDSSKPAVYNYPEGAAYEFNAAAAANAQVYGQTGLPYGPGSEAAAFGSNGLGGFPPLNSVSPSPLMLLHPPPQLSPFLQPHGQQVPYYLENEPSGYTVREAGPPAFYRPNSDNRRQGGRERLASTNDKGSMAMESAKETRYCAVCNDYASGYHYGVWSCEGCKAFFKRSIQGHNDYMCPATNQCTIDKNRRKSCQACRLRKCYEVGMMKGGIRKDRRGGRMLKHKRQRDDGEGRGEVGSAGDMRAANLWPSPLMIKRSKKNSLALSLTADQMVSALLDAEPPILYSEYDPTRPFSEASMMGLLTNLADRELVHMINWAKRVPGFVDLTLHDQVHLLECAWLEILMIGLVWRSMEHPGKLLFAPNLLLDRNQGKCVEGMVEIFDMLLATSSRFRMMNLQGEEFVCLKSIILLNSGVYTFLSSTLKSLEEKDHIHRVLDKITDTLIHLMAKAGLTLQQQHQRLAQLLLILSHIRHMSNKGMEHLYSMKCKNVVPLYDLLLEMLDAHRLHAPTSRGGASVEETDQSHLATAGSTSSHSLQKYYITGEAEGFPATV
Type: cell-based
Procedure: Said test involves measuring the in vitro degradation activity of the compounds of the Table 1a.
The measurements of the degradation activities were made using a breast cancer cell ERα in cell western assay as described hereunder.
MCF7 cells (ATCC) were seeded in 384 wells microplate (collagen coated) at a concentration of 10000 cells/30 μL per well in red phenol free MEM alpha medium (invitrogen) containing 5% charcoal dextran striped FBS. The following day, 9 points serial 1:5 dilution of each compound was added to the cells in 2.5p L at final concentrations ranging from 0.3-0.0000018 μM (in table 2), or 0.1 μM for fulvestrant (using as positive control). At 4 hours post compound addition the cells were fixed by adding 25 μL of formalin (final concentration 5% formalin containing 0.1% triton) for 10 minutes at room temperature and then washed twice with PBS. Then, 50 μL of LI-COR blocking buffer containing 0.1% Triton was added to plate for 30 minutes at room temperature. LI-COR blocking buffer was removed and cells were incubated overnight at cold room with 50 μL anti-ER rabbit monoclonal antibody (Thermo scientific MA1-39540) diluted at 1:1000 in LI-COR blocking buffer containing 0.1% tween-20. Wells which were treated with blocking buffer but no antibody were used as background control. Wells were washed twice with PBS (0.1% tween-20) and incubated at 37° C. for 60 minutes in LI-COR (0.1% tween-20) containing goat anti-rabbit antibody Alexa 488 (1:1000) and Syto-64 a DNA dye (2 μM final concentration). Cells were then washed 3 times in PBS and scanned in ACUMEN explorer (TTP-Labtech). Integrated intensities in the green fluorescence and red fluorescence were measured to determine the levels of ERα and DNA respectively.
The degradation activity with respect to estrogen receptors in this test is given by the concentration which degrades 50% of the estrogen receptor (or IC50) in nM.
The % of ERα levels decrease were determined as follows: % inhibition=100*(1−(sample−fulvestrant: DMSO−fulvestrant)).

Row | Structure (SMILES) | % Degradation At 0.3 μM [%]
1 | Cl.O=C(O)c1ccc2c(c1)OCCC(c1ccc(Cl)cc1Cl)=C2c1ccc(CC2CCN(CCCF)C2)cc1 (single isomer, unassigned; isomer 2) [Compound 8, 4-(2,4-dichlorophenyl)-5-(4-((1-(3-fluoropropyl)pyrrolidin-3-yl)methyl)phenyl)-2,3-dihydrobenzo[b]oxepine-8-carboxylic acid hydrochloride, Isomer 2] | 63
2 | COc1ccc(C2=C(c3ccc(CC4CCN(CCCF)C4)cc3)c3ccc(C(=O)O)cc3CCC2)cn1 (single isomer, unassigned; isomer 1) [Compound 14, 9-(4-((1-(3-fluoropropyl)pyrrolidin-3-yl)methyl)phenyl)-8-(6-methoxypyridin-3-yl)-6,7-dihydro-5H-benzo[7]annulene-3-carboxylic acid, Isomer 1] | 88
3 | O=C(O)C(F)(F)F.O=C(O)c1ccc2c(c1)CCCC(c1ccc(Cl)cc1Cl)=C2c1ccc(CC2(F)CCN(CCCF)C2)cc1 (single isomer, unassigned; isomer 2) [Compound 22, 8-(2,4-dichlorophenyl)-9-(4-((3-fluoro-1-(3-fluoropropyl)pyrrolidin-3-yl)methyl)phenyl)-6,7-dihydro-5H-benzo[7]annulene-3-carboxylic acid, 2,2,2-trifluoroacetic acid, Isomer 2] | 48
4 | Cc1c(Cl)cccc1C1=C(c2ccc(CC3CCN(CCCF)C3)cc2)c2ccc(C(=O)O)cc2CCC1 (single isomer, unassigned; isomer 1) [Compound 15, 8-(3-chloro-2-methylphenyl)-9-(4-((1-(3-fluoropropyl)pyrrolidin-3-yl)methyl)phenyl)-6,7-dihydro-5H-benzo[7]annulene-3-carboxylic acid, Isomer 1] | 88
5 | Cc1cc(F)ccc1C1=C(c2ccc(CC3CCN(CCCF)C3)cc2)c2ccc(C(=O)O)cc2CCC1 (single isomer, unassigned; isomer 1) [Compound 17, 8-(4-fluoro-2-methylphenyl)-9-(4-((1-(3-fluoropropyl)pyrrolidin-3-yl)methyl)phenyl)-6,7-dihydro-5H-benzo[7]annulene-3-carboxylic acid, Isomer 1] | 84
6 | Cl.O=C(O)c1ccc2c(c1)CCC(c1ccc(Cl)cc1Cl)=C2c1ccc(CC2CCN(CCCF)C2)cc1 (single isomer, unassigned; isomer 1) [Compound 36, 6-(2,4-dichlorophenyl)-5-(4-((1-(3-fluoropropyl)pyrrolidin-3-yl)methyl)phenyl)-7,8-dihydronaphthalene-2-carboxylic acid hydrochloride, Isomer 1] | 92
7 | O=C(O)c1ccc2c(c1)CCCC(c1ccc(F)cc1F)=C2c1ccc(CC2CCN(CCC(F)F)C2)cc1 (single isomer, unassigned; isomer 1) [Compound 10, 8-(2,4-difluorophenyl)-9-(4-((1-(3,3-difluoropropyl)pyrrolidin-3-yl)methyl)phenyl)-6,7-dihydro-5H-benzo[7]annulene-3-carboxylic acid, Isomer 1] | 84
8 | Cl.O=C(O)c1ccc2c(c1)CCCC(c1ccc(Cl)cc1)=C2c1ccc(CC2CCN(CCCF)C2)cc1 (single isomer, unassigned; isomer 1) [Compound 37, 8-(4-chlorophenyl)-9-(4-((1-(3-fluoropropyl)pyrrolidin-3-yl)methyl)phenyl)-6,7-dihydro-5H-benzo[7]annulene-3-carboxylic acid hydrochloride, Isomer 1] | 93
9 | Cc1cc(F)cc(C)c1C1=C(c2ccc(CC3CCN(CCCF)C3)cc2)c2ccc(C(=O)O)cc2CCC1.Cl (single isomer, unassigned; isomer 1) [Compound 35, 8-(4-fluoro-2,6-dimethylphenyl)-9-(4-((1-(3-fluoropropyl)pyrrolidin-3-yl)methyl)phenyl)-6,7-dihydro-5H-benzo[7]annulene-3-carboxylic acid hydrochloride, Isomer 1] | 84
